The assay addresses T1, human GPR52 (Homo sapiens, UniProt Q9Y2T5).
T1 construct: expressed in transfected cells; host or cells: CHO(dhfr-) cells
The experiment in a line: Increase of intracellular cAMP concentration in human GPR52-expressing CHO cell (AlphaScreen cAMP assay). It is filed as cell-based. The following applies: human GPR52-expressing CHO(dhfr-) cells; for activity at 1 µM: CHO, 1µM test compound, 100% = cAMP with 1 µM Reference Example 79, 0% = DMSO, 37°C, 30 min, read-out: GPR52 agonist activity (%); for EC50: concentration of the test compound at which it shows 50% activity, read-out: GPR52 agonist activity EC50. Here is the method:
Increase of intracellular cAMP concentration in human GPR52-expressing CHO cell
Using OptiPlate-384 (PerkinElmer Inc.), 1×10^4 human GPR52-expressing CHO(dhfr-) cells were incubated together with various concentration(10^-5µM - 10µm) of a test compound in an assay buffer (30 µL, HBSS (containing Ca^2+ and Mg^2+), 0.5% BSA, 100 µM IBMX, 100 µM Ro20-1724, 5 mM HEPES (pH 7.55)) at 37°C for 30 min. Thereafter, according to the protocol of AlphaScreen CAMP Assay Kit (PerkinElmer Inc.), the intracellular cAMP concentration was measured by EnVision (PerkinElmer Inc.). The GPR52 agonist activity was calculated, assuming the intracellular cAMP concentration in the presence of […] N-(2-hydroxyethyl)-3-[2-[3-(trifluoromethyl)benzyl]-1-benzofuran-4-yl]benzamide (Reference Example 79) to be 100% and assuming the intracellular cAMP concentration when DMSO was added instead of the test compound to be 0%.
A general note: Bead proximity is the source of the signal in Alpha formats.

SMILES strings stand for the structures.

T1 sequence (Q9Y2T5 whole entry): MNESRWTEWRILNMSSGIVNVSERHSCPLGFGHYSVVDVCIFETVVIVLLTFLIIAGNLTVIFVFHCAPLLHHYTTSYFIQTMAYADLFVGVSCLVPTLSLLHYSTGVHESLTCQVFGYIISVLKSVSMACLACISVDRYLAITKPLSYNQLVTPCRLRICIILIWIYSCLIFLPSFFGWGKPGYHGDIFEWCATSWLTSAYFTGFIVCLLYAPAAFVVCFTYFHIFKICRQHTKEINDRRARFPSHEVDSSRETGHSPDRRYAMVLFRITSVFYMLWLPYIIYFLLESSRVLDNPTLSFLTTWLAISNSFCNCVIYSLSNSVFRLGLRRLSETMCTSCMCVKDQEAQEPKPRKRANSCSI

As to `Cc1nc(-c2cccc3cc(Cc4cccc(C(F)(F)F)c4)sc23)oc1C(=O)NCC(N)=O` [Example 11, N-(2-amino-2-oxoethyl)-4-methyl-2-[2-[3-(trifluoromethyl)benzyl]-1-benzothiophen-7-yl]-1,3-oxazole-5-carboxamide], the activity at 1 µM came to 70% and the EC50 (usually the concentration at which the effect is half-maximal) turned out to be 290 nM.

Regarding `Cc1cn(-c2cccc3cc(Cc4cccc(C(F)(F)F)c4)sc23)cc1C(=O)NCC(N)=O` [Example 12, N-(2-amino-2-oxoethyl)-4-methyl-1-[2-[3-(trifluoromethyl)benzyl]-1-benzothiophen-7-yl]-1H-pyrrole-3-carboxamide], the activity at 1 µM came out at 107%.

As to `COCCNC(=O)c1cnn(-c2cccc3cc(Cc4cccc(C(F)(F)F)c4)sc23)c1C` [Example 13, N-(2-methoxyethyl)-5-methyl-1-[2-[3-(trifluoromethyl)benzyl]-1-benzothiophen-7-yl]-1H-pyrazole-4-carboxamide], the activity at 1 µM was determined as 79%.

On to `Cc1nn(-c2cccc3cc(Cc4cccc(C(F)(F)F)c4)sc23)cc1C(=O)NCC(N)=O` [Example 16, N-(2-amino-2-oxoethyl)-3-methyl-1-[2-[3-(trifluoromethyl)benzyl]-1-benzothiophen-7-yl]-1H-pyrazole-4-carboxamide], for which the activity at 1 µM is 94%.

For `O=C(NCCO)c1cn(-c2cccc3cc(Cc4cccc(C(F)(F)F)c4)sc23)nc1C(F)(F)F` [Example 20, N-(2-hydroxyethyl)-3-(trifluoromethyl)-1-[2-[3-(trifluoromethyl)benzyl]-1-benzothiophen-7-yl]-1H-pyrazole-4-carboxamide], the activity at 1 µM amounted to 79%.

`NC(=O)CNC(=O)c1cn(-c2cccc3cc(Cc4cccc(C(F)(F)F)c4)sc23)nc1C(F)(F)F` [Example 21, N-(2-amino-2-oxoethyl)-3-(trifluoromethyl)-1-[2-[3-(trifluoromethyl)benzyl]-1-benzothiophen-7-yl]-1H-pyrazole-4-carboxamide]: the activity at 1 µM stood at 94%.

On to `NC(=O)c1cn(-c2cccc3cc(Cc4cccc(C(F)(F)F)c4)sc23)nc1C(F)(F)F` [Example 22, 3-(trifluoromethyl)-1-[2-[3-(trifluoromethyl)benzyl]benzothiophen-7-yl]-1H-pyrazole-4-carboxamide], for which the activity at 1 µM stood at 93%.

On to `CC(C)c1nn(-c2cccc3cc(Cc4cccc(C(F)(F)F)c4)sc23)cc1C(=O)NCCO` [Example 26, N-(2-hydroxyethyl)-3-(1-methylethyl)-1-[2-[3-(trifluoromethyl)benzyl]-1-benzothiophen-7-yl]-1H-pyrazole-4-carboxamide], for which the activity at 1 µM came to 96%.

With `NC(=O)CNC(=O)c1cn(-c2cccc3cc(Cc4cccc(C(F)(F)F)c4)sc23)nc1C1CC1` [Example 28, N-(2-amino-2-oxoethyl)-3-cyclopropyl-1-[2-[3-(trifluoromethyl)benzyl]-1-benzothiophen-7-yl]-1H-pyrazole-4-carboxamide], the activity at 1 µM worked out at 95%.

As for `O=C(NCCO)c1cn(-c2cccc3cc(Cc4cccc(C(F)(F)F)c4)sc23)nc1C1CC1` [Example 29, 3-cyclopropyl-N-(2-hydroxyethyl)-1-[2-[3-(trifluoromethyl)benzyl]-1-benzothiophen-7-yl]-1H-pyrazole-4-carboxamide], the activity at 1 µM came to 97%.

As to `Cc1cn(-c2cccc3cc(Cc4cccc(C(F)(F)F)c4)sc23)nc1C(=O)NCC(N)=O` [Example 30, N-(2-amino-2-oxoethyl)-4-methyl-1-[2-[3-(trifluoromethyl)benzyl]-1-benzothiophen-7-yl]-1H-pyrazole-3-carboxamide], the activity at 1 µM was found to be 96%.

For `Cc1cc(C(=O)NCC(N)=O)n(-c2cccc3cc(Cc4cccc(C(F)(F)F)c4)sc23)n1` [Example 31, N-(2-amino-2-oxoethyl)-3-methyl-1-[2-[3-(trifluoromethyl)benzyl]-1-benzothiophen-7-yl]-1H-pyrazole-5-carboxamide], the activity at 1 µM turned out to be 84%.

Regarding `Cc1cc(C(=O)NCCO)n(-c2cccc3cc(Cc4cccc(C(F)(F)F)c4)sc23)n1` [Example 33, N-(2-hydroxyethyl)-3-methyl-1-[2-[3-(trifluoromethyl)benzyl]-1-benzothiophen-7-yl]-1H-pyrazole-5-carboxamide], the activity at 1 µM worked out at 79%.

Turning to `Cc1nc(-c2cccc3cc(Cc4cccc(C(F)(F)F)c4)sc23)sc1C(N)=O` [Example 36, 4-methyl-2-[2-[3-(trifluoromethyl)benzyl]-1-benzothiophen-7-yl]-1,3-thiazole-5-carboxamide], the activity at 1 µM was 96%.

Take `Cc1nc(-c2cccc3cc(Cc4cccc(C(F)(F)F)c4)sc23)sc1C(=O)NCC(N)=O` [Example 37, N-(2-amino-2-oxoethyl)-4-methyl-2-[2-[3-(trifluoromethyl)benzyl]-1-benzothiophen-7-yl]-1,3-thiazole-5-carboxamide]: the activity at 1 µM is 97%.

As for `Cc1nc(-c2cccc3cc(Cc4cccc(C(F)(F)F)c4)sc23)sc1C(=O)NCCC#N` [Example 38, N-(2-cyanoethyl)-4-methyl-2-[2-[3-(trifluoromethyl)benzyl]-1-benzothiophen-7-yl]-1,3-thiazole-5-carboxamide], the activity at 1 µM was 101%.

For the molecule `Cc1nc(-c2cccc3cc(Cc4cccc(C(F)(F)F)c4)sc23)sc1C(=O)NCCO` [Example 39, N-(2-hydroxyethyl)-4-methyl-2-[2-[3-(trifluoromethyl)benzyl]-1-benzothiophen-7-yl]-1,3-thiazole-5-carboxamide], the activity at 1 µM amounted to 93%.

For `COCCNC(=O)c1sc(-c2cccc3cc(Cc4cccc(C(F)(F)F)c4)sc23)nc1C` [Example 40, N-(2-methoxyethyl)-4-methyl-2-[2-[3-(trifluoromethyl)benzyl]-1-benzothiophen-7-yl]-1,3-thiazole-5-carboxamide], the activity at 1 µM turned out to be 90%.

Regarding `Cc1nc(-c2cccc3nn(Cc4cccc(C(F)(F)F)c4)cc23)sc1C(N)=O` [Example 41, 4-methyl-2-[2-[3-(trifluoromethyl)benzyl]-2H-indazol-4-yl]-1,3-thiazole-5-carboxamide], the 50% effective concentration (EC50) is 49 nM.

Take `Cc1nc(-c2cccc3oc(Cc4cccc(C(F)(F)F)c4)cc23)sc1C(N)=O` [Example 44, 4-methyl-2-[2-[3-(trifluoromethyl)benzyl]-1-benzofuran-4-yl]-1,3-thiazole-5-carboxamide]: the activity at 1 µM was 92%.

On to `Cc1nc(-c2cccc3oc(Cc4cccc(C(F)(F)F)c4)cc23)sc1C(=O)NCCO` [Example 46, N-(2-hydroxyethyl)-4-methyl-2-[2-[3-(trifluoromethyl)benzyl]-1-benzofuran-4-yl]-1,3-thiazole-5-carboxamide], for which the activity at 1 µM was determined as 90%.

In the case of `Cc1nc(-c2cccc3cc(Cc4cccc(C(F)(F)F)c4)sc23)n(C)c1C(=O)NCC(N)=O` [Example 47, N-(2-amino-2-oxoethyl)-1,4-dimethyl-2-[2-[3-(trifluoromethyl)benzyl]-1-benzothiophen-7-yl]-1H-imidazole-5-carboxamide], the activity at 1 µM was found to be 93%.

On to `Cc1nc(-c2cccc3cc(Cc4cccc(C(F)(F)F)c4)sc23)n(C)c1C(N)=O` [Example 48, 1,4-dimethyl-2-[2-[3-(trifluoromethyl)benzyl]-1-benzothiophen-7-yl]-1H-imidazole-5-carboxamide], for which the activity at 1 µM is 89%.

For `Cc1c(C(N)=O)nc(-c2cccc3cc(Cc4cccc(C(F)(F)F)c4)sc23)n1C` [Example 50, 1,5-dimethyl-2-[2-[3-(trifluoromethyl)benzyl]-1-benzothiophen-7-yl]-1H-imidazole-4-carboxamide], the activity at 1 µM was 79%.

`COCCNC(=O)c1c(C)nn(-c2cccc3cc(Cc4cccc(C(F)(F)F)c4)sc23)c1C` [Example 51, N-(2-methoxyethyl)-3,5-dimethyl-1-[2-[3-(trifluoromethyl)benzyl]-1-benzothiophen-7-yl]-1H-pyrazole-4-carboxamide]: the activity at 1 µM worked out at 102%.

Regarding `Cc1nn(-c2cccc3cc(Cc4cccc(C(F)(F)F)c4)sc23)c(C)c1C(=O)NCCO` [Example 52, N-(2-hydroxyethyl)-3,5-dimethyl-1-[2-[3-(trifluoromethyl)benzyl]-1-benzothiophen-7-yl]-1H-pyrazole-4-carboxamide], the activity at 1 µM was 107%.

As for `Cc1nn(-c2cccc3cc(Cc4cccc(C(F)(F)F)c4)sc23)c(C)c1C(=O)NCC(N)=O` [Example 53, N-(2-amino-2-oxoethyl)-3,5-dimethyl-1-[2-[3-(trifluoromethyl)benzyl]-1-benzothiophen-7-yl]-1H-pyrazole-4-carboxamide], the activity at 1 µM came out at 102%.

As for `Cc1nn(-c2cccc3cc(Cc4cccc(C(F)(F)F)c4)sc23)c(C)c1C(N)=O` [Example 54, 3,5-dimethyl-1-[2-[3-(trifluoromethyl)benzyl]-1-benzothiophen-7-yl]-1H-pyrazole-4-carboxamide], the activity at 1 µM amounted to 101%.

In the case of `Cc1nn(-c2cccc3cc(Cc4cc(F)cc(Cl)c4)sc23)c(C)c1C(=O)NCC(N)=O` [Example 55, N-(2-amino-2-oxoethyl)-1-[2-(3-chloro-5-fluorobenzyl)-1-benzothiophen-7-yl]-3,5-dimethyl-1H-pyrazole-4-carboxamide], the activity at 1 µM is 96%.

(Values after patent EP2518054A1, “AMIDE COMPOUND” (Takeda Pharmaceutical Company Limited, priority 2009, dated 2011).)
